Assay results reported in the NIST ThermoML archive (doi:10.1021/acs.jced.8b00387).

Test: xn = mol fraction of the nth substance listed
Conditions: for viscosity / mass density / speed of sound: 102 kPa, Liquid; for viscosity: Concentric cylinders viscometry; for mass density: Vibrating tube method; for speed of sound: Frequency=3 MHz, Single path-length method; for surface tension liquid-gas: 295 K, Pendant drop shape

CC(CC(C)(C)C)CC(C)(C)CC(C)(C)C (stereo not given) [2,2,4,4,6,8,8-heptamethylnonane] + CCCCCCc1ccccc1
Conditions	mass density [kg/m3]	speed of sound [m/s]	viscosity [mPa·s]
253.15 K, x2 = 0.1015	816.6	–	11.82
253.15 K, x2 = 0.2005	822.2	–	10.18
253.15 K, x2 = 0.2999	828	–	9.04
253.15 K, x2 = 0.4001	834.5	–	7.96
253.15 K, x2 = 0.4996	841.5	–	7.08
253.15 K, x2 = 0.6	849.4	–	6.37
253.15 K, x2 = 0.6999	857.7	–	5.78
253.15 K, x2 = 0.8	867.1	–	5.3
253.15 K, x2 = 0.9	877.1	–	4.94
288.15 K, x2 = 0.1015	792.77	1311.3	–
288.15 K, x2 = 0.2005	798.05	1317.6	–
288.15 K, x2 = 0.2999	803.73	1324.6	–
288.15 K, x2 = 0.4001	810.02	1332	–
288.15 K, x2 = 0.4996	816.74	1340.4	–
288.15 K, x2 = 0.6	824.16	1349.4	–
288.15 K, x2 = 0.6999	832.36	1359.3	–
288.15 K, x2 = 0.8	841.37	1370	–
288.15 K, x2 = 0.9	851.27	1382.2	–
293.15 K, x2 = 0.1015	789.39	1292.1	3.37
293.15 K, x2 = 0.2005	794.63	1298.5	3.04
293.15 K, x2 = 0.2999	800.29	1305.4	2.75
293.15 K, x2 = 0.4001	806.56	1313	2.51
293.15 K, x2 = 0.4996	813.23	1321.1	2.3
293.15 K, x2 = 0.6	820.65	1330.2	2.12
293.15 K, x2 = 0.6999	828.75	1340.1	1.98
293.15 K, x2 = 0.8	837.7	1350.9	1.85
293.15 K, x2 = 0.9	847.55	1363	1.74
303.15 K, x2 = 0.1015	782.63	1254.4	2.68
303.15 K, x2 = 0.2005	787.8	1261.2	2.44
303.15 K, x2 = 0.2999	793.41	1267.7	2.23
303.15 K, x2 = 0.4001	799.59	1275.6	2.05
303.15 K, x2 = 0.4996	806.19	1283.4	1.89
303.15 K, x2 = 0.6	813.53	1292.4	1.78
303.15 K, x2 = 0.6999	821.53	1302.3	1.66
303.15 K, x2 = 0.8	830.36	1313.5	1.56
303.15 K, x2 = 0.9	840.1	1325.2	1.48
313.15 K, x2 = 0.1015	775.87	1217.8	2.19
313.15 K, x2 = 0.2005	780.97	1224.6	2
313.15 K, x2 = 0.2999	786.51	1231	1.84
313.15 K, x2 = 0.4001	792.62	1238.9	1.7
313.15 K, x2 = 0.4996	799.14	1246.6	1.58
313.15 K, x2 = 0.6	806.39	1255.5	1.49
313.15 K, x2 = 0.6999	814.29	1265.4	1.4
313.15 K, x2 = 0.8	823.01	1276.7	1.32
313.15 K, x2 = 0.9	832.64	1288.3	1.25
323.15 K, x2 = 0.1015	769.09	1181.9	1.82
323.15 K, x2 = 0.2005	774.12	1188.7	1.67
323.15 K, x2 = 0.2999	779.61	1195.1	1.55
323.15 K, x2 = 0.4001	785.63	1203	1.44
323.15 K, x2 = 0.4996	792.08	1210.5	1.37
323.15 K, x2 = 0.6	799.24	1219.5	1.28
323.15 K, x2 = 0.6999	807.04	1229.4	1.2
323.15 K, x2 = 0.8	815.65	1240.5	1.14
323.15 K, x2 = 0.9	825.16	1252	1.09
333.15 K, x2 = 0.1015	762.29	1147.1	1.53
333.15 K, x2 = 0.2005	767.25	1153.6	1.42
333.15 K, x2 = 0.2999	772.68	1160.3	1.32
333.15 K, x2 = 0.4001	778.62	1167.9	1.23
333.15 K, x2 = 0.4996	784.99	1175.5	1.18
333.15 K, x2 = 0.6	792.06	1184.4	1.11
333.15 K, x2 = 0.6999	799.77	1194.3	1.04
333.15 K, x2 = 0.8	808.26	1205.1	0.99
333.15 K, x2 = 0.9	817.65	1216.8	0.945

Conditions	surface tension liquid-gas [mN/m]
x2 = 0.1015	24.4
x2 = 0.2005	24.5
x2 = 0.2999	24.7
x2 = 0.4001	25.3
x2 = 0.4996	25.6
x2 = 0.6	25.8
x2 = 0.6999	26.5
x2 = 0.8	27.2
x2 = 0.9	27.9

CC(CC(C)(C)C)CC(C)(C)CC(C)(C)C (stereo not given) [2,2,4,4,6,8,8-heptamethylnonane] + CCCCc1ccccc1
Conditions	mass density [kg/m3]	speed of sound [m/s]	viscosity [mPa·s]
253.15 K, x2 = 0.1007	815.9	–	11.06
253.15 K, x2 = 0.2007	820.7	–	8.94
253.15 K, x2 = 0.3	826.1	–	7.29
253.15 K, x2 = 0.3999	832.1	–	5.97
253.15 K, x2 = 0.4998	838.8	–	4.93
253.15 K, x2 = 0.5997	846.5	–	4.12
253.15 K, x2 = 0.7001	855.7	–	3.46
253.15 K, x2 = 0.7998	865.8	–	2.96
253.15 K, x2 = 0.8992	878.5	–	2.59
288.15 K, x2 = 0.1007	791.93	1308.2	–
288.15 K, x2 = 0.2007	796.54	1311.6	–
288.15 K, x2 = 0.3	801.59	1315.6	–
288.15 K, x2 = 0.3999	807.31	1320.4	–
288.15 K, x2 = 0.4998	813.73	1325.5	–
288.15 K, x2 = 0.5997	820.89	1331.9	–
288.15 K, x2 = 0.7001	829.45	1339.5	–
288.15 K, x2 = 0.7998	839.17	1348.9	–
288.15 K, x2 = 0.8992	850.51	1359.8	–
293.15 K, x2 = 0.1007	788.54	1289.3	3.22
293.15 K, x2 = 0.2007	793.11	1292.7	2.77
293.15 K, x2 = 0.3	798.11	1296.6	2.41
293.15 K, x2 = 0.3999	803.78	1301.1	2.09
293.15 K, x2 = 0.4998	810.17	1306.3	1.83
293.15 K, x2 = 0.5997	817.24	1312.5	1.6
293.15 K, x2 = 0.7001	825.74	1320.1	1.41
293.15 K, x2 = 0.7998	835.37	1329.1	1.29
293.15 K, x2 = 0.8992	846.62	1340	1.15
303.15 K, x2 = 0.1007	781.75	1251.9	2.58
303.15 K, x2 = 0.2007	786.24	1255.2	2.25
303.15 K, x2 = 0.3	791.16	1258.9	1.97
303.15 K, x2 = 0.3999	796.72	1263.3	1.73
303.15 K, x2 = 0.4998	803	1268.3	1.55
303.15 K, x2 = 0.5997	809.95	1274.4	1.37
303.15 K, x2 = 0.7001	818.29	1281.9	1.21
303.15 K, x2 = 0.7998	827.77	1290.3	1.1
303.15 K, x2 = 0.8992	838.82	1300.9	0.993
313.15 K, x2 = 0.1007	774.96	1215.2	2.11
313.15 K, x2 = 0.2007	779.36	1218.4	1.86
313.15 K, x2 = 0.3	784.19	1222	1.64
313.15 K, x2 = 0.3999	789.65	1226.2	1.46
313.15 K, x2 = 0.4998	795.81	1231.1	1.3
313.15 K, x2 = 0.5997	802.64	1237	1.16
313.15 K, x2 = 0.7001	810.83	1244.2	1.03
313.15 K, x2 = 0.7998	820.15	1252.3	0.957
313.15 K, x2 = 0.8992	831.01	1262.7	0.855
323.15 K, x2 = 0.1007	768.15	1179.3	1.76
323.15 K, x2 = 0.2007	772.47	1182.3	1.56
323.15 K, x2 = 0.3	777.21	1185.8	1.39
323.15 K, x2 = 0.3999	782.56	1189.8	1.27
323.15 K, x2 = 0.4998	788.61	1194.5	1.14
323.15 K, x2 = 0.5997	795.31	1200.2	1.03
323.15 K, x2 = 0.7001	803.34	1207.2	0.92
323.15 K, x2 = 0.7998	812.49	1215.1	0.831
323.15 K, x2 = 0.8992	823.15	1225.2	0.754
333.15 K, x2 = 0.1007	761.33	1144.1	1.49
333.15 K, x2 = 0.2007	765.57	1147	1.33
333.15 K, x2 = 0.3	770.2	1150.3	1.2
333.15 K, x2 = 0.3999	775.45	1154.1	1.1
333.15 K, x2 = 0.4998	781.38	1158.8	1
333.15 K, x2 = 0.5997	787.95	1164.2	0.9
333.15 K, x2 = 0.7001	795.82	1170.9	0.812
333.15 K, x2 = 0.7998	804.8	1178.9	0.736
333.15 K, x2 = 0.8992	815.26	1188.7	0.67

Conditions	surface tension liquid-gas [mN/m]
x2 = 0.1007	24.3
x2 = 0.2007	24.6
x2 = 0.3	24.8
x2 = 0.3999	25.1
x2 = 0.4998	25.5
x2 = 0.5997	26
x2 = 0.7001	26.2
x2 = 0.7998	26.7
x2 = 0.8992	27.3
